Laboratory results taken from US10889553B2, “Asymmetric triazole benzamide derivatives and the compositions and methods of treatment regarding the same” (NysnoBio Ireland DAC, priority 2017, dated 2021).
Where two headings read alike, the source gives them in different places.

What was measured:
Calu-6 (lung) = assay: Cancer cell proliferation assay (acid phosphatase); assay type: cell-based; settings: Homo sapiens, Table 6A, 72 hrs, read-out: Calu6 IC50
Outline: (§1)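 Seed 4×10^4 cells/ml, overnight 37° C./5% CO2; add compound (varying conc., triplicate); incubate 72 hrs; wash PBS; acid phosphatase substrate pH 5.5, 2 h; stop NaOH; read 405/620 nm; % inhibition vs DMSO.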

HCT-116 (colon) = assay: Cancer cell proliferation assay (acid phosphatase); assay type: cell-based; settings: Homo sapiens, HCT-116
Outline: as §1

A549 (lung) = assay: Cancer cell proliferation assay (acid phosphatase); assay type: cell-based; settings: Homo sapiens, A549
Outline: as §1

TOV-21G (ovarian) = assay: Cancer cell proliferation assay (acid phosphatase); assay type: cell-based; settings: Homo sapiens, TOV21G
Outline: as §1

LS-174T (colon) = assay: Cancer cell proliferation assay (acid phosphatase); assay type: cell-based; settings: Homo sapiens, LS174T; Table 6A; 72 hrs
Outline: as §1

CDK4/CyclinD1 = CDK4/CyclinD1 (Homo sapiens, UniProt P11802); assay: Kinase panel assay; assay type: biochemical
Source text: (§2) Compound 42 was also screened in a kinase panel assay.

CDK6/CyclinD1 = CDK6/CyclinD1 (Homo sapiens, UniProt Q00534); assay: Kinase panel assay; assay type: biochemical
Source text: as §2

PLK1 = PLK1 (Homo sapiens, UniProt P53350); assay: Kinase panel assay; assay type: biochemical
Source text: as §2

MAPK14 (p38 alpha) = MAPK14 (p38 alpha) (Homo sapiens, UniProt Q16539); assay: Kinase panel assay; assay type: biochemical
Source text: as §2

MAPK1 (ERK2) = MAPK1 (ERK2) (Homo sapiens, UniProt P28482); assay: Kinase panel assay; assay type: biochemical
Source text: as §2

CDK2/Cyclin A = CDK2/Cyclin A (Homo sapiens, UniProt P24941); assay: Kinase panel assay; assay type: biochemical
Source text: as §2

CDK4/CyclinD3 = CDK4/CyclinD3 (Homo sapiens, UniProt P11802); assay: Kinase panel assay; assay type: biochemical
Source text: as §2

ABL1 = ABL1 (Homo sapiens, UniProt P00519); assay: Kinase panel assay; assay type: biochemical
Source text: as §2

PIM1 = PIM1 (Homo sapiens, UniProt P11309); assay: Kinase panel assay; assay type: biochemical
Source text: as §2

MAPK3 (ERK1) = MAPK3 (ERK1) (Homo sapiens, UniProt P27361); assay: Kinase panel assay; assay type: biochemical
Source text: as §2

PAK4 = PAK4 (Homo sapiens, UniProt O96013); assay: Kinase panel assay; assay type: biochemical
Source text: as §2

GSK3B (GSK3 beta) = GSK3B (GSK3 beta) (Homo sapiens, UniProt P49841); assay: Kinase panel assay; assay type: biochemical
Source text: as §2

[1] = Microsomal stability assay, rat liver microsomes; assay type: in vitro ADME; settings: pH 7.4; rat liver microsomes 1.0 mg/mL, 1 μM compound, NADPH; read-out: RLM t1/2
Outline: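 Compound at 1 μM final (1% DMSO) was incubated with rat or human liver microsomes (1.0 mg/mL) in 50 mM KH2PO4 pH 7.4, started with NADPH. Parent remaining at 0, 15, 30 and 60 min was measured by LC-MS/MS. kobs came from ln(% remaining) versus time, and T1/2=[…]/kobs.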

[2] = Microsomal stability assay, human liver microsomes; assay type: in vitro ADME; settings: pH 7.4; human liver microsomes 1.0 mg/mL, 1 μM compound, NADPH; read-out: HLM t1/2
Experimental: Compounds were also tested for metabolic stability in both rat liver microsomes (RLM) and the compounds are tested for human liver microsomes (HLM) and their half-life is calculated (See Tables 5A and 5B). The assay was performed as follows. The total volume for each incubation was 250 μL. A 100 μM DMSO solution of compound (diluted from 10 mM stock solution) was spiked into 50 mM KH2PO4 (pH 7.4) buffer containing liver microsome at a concentration of 1.0 mg/mL. The reaction was initiated by the addition of 50 μL of 1 mM NADPH. The final concentration of each compound was 1 μM (1% DMSO). The positive controls, phenacetin for CYP1A2, diclofenac for CYP2C9, omeprazole for CYP2C19, dextromethorphan for CYP2D6 and midazolam for CYP3A4 were added to a separate tube with the final substrate concentrations of 1 μM (1% DMSO) for evaluating the enzyme activities in the liver microsomes. At 0, 15, 30 and 60 min, an aliquot of 15 μL reaction mixtures were removed and 200 μL of methanol (with internal standard of 25 ng/mL propranolol) was added to quench the reaction. The resulting mixture was centrifuged and supernatant was used for LC-MS/MS analysis.
The signals for each compound, or the metabolites for the probe substrates and the internal standard were integrated and the peak area ratios to internal standard were generated. Percent parent remaining at a specified timepoint was calculated based on the peak area ratios at time 0 (as 100%) for in vitro metabolic stability studies in liver microsome and hepatocyte. The observed rate constant (kobs) for the metabolism of substrates was calculated by plotting the natural log of percentage substrate remaining versus time of incubation with the slope being kobs. The half-life (T1/2) was calculated according to the following equation: T1/2=[…]

[3] = Table 6D, another set of cell proliferation assay

Chain of GSK3B (GSK3 beta) (P49841 whole entry, species assumed): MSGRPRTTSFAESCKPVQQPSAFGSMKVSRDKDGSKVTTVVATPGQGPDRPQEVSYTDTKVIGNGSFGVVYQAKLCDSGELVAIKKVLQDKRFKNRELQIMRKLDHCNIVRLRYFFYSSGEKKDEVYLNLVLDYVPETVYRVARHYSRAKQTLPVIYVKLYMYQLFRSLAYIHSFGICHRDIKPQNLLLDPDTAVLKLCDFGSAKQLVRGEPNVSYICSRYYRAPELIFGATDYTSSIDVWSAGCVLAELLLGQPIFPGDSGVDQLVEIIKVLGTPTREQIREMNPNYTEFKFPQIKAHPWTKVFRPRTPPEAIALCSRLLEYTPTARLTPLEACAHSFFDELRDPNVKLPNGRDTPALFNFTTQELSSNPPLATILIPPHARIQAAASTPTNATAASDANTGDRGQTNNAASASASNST
Chain of PIM1 (P11309 whole entry, species assumed): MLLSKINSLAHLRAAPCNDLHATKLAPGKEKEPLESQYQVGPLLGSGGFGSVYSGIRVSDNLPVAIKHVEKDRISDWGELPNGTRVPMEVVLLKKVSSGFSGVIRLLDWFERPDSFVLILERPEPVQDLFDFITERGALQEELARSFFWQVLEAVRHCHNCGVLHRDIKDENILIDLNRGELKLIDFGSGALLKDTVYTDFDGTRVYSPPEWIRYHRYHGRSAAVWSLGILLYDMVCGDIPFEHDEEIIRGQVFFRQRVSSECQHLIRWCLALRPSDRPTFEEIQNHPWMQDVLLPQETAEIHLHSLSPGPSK
Chain of PLK1 (P53350 whole entry, species assumed): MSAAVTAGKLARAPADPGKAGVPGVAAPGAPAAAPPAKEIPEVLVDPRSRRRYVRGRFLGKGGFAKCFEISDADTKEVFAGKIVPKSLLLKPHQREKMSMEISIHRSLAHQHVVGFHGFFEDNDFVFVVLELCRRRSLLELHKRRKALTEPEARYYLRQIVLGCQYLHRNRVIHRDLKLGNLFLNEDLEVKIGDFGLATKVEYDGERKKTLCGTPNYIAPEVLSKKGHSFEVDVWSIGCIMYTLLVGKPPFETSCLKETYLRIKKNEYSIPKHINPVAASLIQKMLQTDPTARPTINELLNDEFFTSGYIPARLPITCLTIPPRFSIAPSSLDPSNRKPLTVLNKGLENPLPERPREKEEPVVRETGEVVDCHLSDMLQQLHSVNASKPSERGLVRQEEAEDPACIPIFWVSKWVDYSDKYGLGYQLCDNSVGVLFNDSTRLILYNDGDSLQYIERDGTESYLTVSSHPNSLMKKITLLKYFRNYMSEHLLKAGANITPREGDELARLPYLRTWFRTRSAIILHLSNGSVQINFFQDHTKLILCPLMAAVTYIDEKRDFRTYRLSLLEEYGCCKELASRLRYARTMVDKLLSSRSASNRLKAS
Chain of CDK4/CyclinD1 (P11802 whole entry, species assumed): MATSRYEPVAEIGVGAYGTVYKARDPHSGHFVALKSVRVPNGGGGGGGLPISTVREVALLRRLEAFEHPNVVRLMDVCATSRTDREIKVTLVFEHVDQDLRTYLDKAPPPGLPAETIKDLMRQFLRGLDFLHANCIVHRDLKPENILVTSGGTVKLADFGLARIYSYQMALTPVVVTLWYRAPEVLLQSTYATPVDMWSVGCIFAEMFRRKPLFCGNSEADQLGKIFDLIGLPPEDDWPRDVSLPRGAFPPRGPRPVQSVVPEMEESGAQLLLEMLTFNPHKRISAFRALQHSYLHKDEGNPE
Chain of CDK4/CyclinD1 (P24385 whole entry partner, species assumed): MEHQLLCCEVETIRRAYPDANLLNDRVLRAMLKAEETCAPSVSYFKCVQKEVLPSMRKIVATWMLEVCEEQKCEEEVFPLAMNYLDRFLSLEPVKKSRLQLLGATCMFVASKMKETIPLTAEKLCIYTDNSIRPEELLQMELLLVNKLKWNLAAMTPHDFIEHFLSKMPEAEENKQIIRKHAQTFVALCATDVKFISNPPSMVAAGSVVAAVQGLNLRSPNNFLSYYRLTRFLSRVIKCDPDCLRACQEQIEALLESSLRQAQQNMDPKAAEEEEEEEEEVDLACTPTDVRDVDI
Chain of CDK4/CyclinD3 (P11802 whole entry, species assumed): as the sequence (P11802 whole entry, species assumed) above
Chain of CDK4/CyclinD3 (P30281 whole entry partner, species assumed): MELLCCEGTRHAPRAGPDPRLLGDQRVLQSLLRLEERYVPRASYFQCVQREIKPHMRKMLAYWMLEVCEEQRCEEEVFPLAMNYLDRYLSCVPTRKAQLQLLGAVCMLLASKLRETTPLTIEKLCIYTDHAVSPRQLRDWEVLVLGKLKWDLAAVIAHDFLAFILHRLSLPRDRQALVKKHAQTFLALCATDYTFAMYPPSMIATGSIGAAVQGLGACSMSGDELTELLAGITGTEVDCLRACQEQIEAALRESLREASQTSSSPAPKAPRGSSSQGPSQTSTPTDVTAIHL
Chain of ABL1 (P00519 whole entry, species assumed): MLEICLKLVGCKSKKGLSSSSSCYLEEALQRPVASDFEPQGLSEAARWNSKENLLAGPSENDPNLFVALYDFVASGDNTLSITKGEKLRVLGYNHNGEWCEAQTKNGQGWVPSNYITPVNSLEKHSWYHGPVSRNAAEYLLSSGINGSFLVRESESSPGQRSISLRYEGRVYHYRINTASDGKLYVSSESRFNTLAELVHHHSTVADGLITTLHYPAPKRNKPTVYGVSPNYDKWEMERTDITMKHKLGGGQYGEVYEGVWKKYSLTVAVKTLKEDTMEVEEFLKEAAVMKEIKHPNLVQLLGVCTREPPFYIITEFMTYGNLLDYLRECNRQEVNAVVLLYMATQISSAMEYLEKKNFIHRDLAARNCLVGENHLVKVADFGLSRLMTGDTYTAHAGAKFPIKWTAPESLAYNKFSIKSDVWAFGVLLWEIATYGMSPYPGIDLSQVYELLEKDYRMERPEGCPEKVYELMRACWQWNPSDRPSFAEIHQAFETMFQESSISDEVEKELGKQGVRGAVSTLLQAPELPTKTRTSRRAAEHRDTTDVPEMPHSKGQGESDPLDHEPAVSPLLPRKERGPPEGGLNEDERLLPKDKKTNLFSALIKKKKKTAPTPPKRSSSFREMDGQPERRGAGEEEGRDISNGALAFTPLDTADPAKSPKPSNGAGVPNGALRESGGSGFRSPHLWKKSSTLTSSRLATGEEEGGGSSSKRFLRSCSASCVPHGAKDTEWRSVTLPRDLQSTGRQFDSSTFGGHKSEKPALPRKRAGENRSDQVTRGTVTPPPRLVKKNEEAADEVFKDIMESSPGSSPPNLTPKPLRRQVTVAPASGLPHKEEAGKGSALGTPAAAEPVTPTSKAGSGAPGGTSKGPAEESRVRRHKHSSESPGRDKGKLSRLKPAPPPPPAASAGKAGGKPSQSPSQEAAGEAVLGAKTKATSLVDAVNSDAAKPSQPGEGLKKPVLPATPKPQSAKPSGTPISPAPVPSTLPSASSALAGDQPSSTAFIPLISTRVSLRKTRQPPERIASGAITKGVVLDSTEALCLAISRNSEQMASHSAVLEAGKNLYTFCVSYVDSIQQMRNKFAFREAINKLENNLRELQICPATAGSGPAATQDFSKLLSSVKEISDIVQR
Chain of CDK6/CyclinD1 (Q00534 whole entry, species assumed): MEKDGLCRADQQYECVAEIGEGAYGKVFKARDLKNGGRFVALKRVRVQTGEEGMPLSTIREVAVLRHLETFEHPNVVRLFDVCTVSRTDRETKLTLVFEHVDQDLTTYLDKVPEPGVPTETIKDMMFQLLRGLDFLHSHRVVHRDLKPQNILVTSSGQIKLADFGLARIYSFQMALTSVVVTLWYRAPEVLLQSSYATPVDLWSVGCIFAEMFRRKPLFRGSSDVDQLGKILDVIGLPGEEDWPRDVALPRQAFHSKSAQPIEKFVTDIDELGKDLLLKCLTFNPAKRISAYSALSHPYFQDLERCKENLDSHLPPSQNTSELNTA
Chain of CDK6/CyclinD1 (P24385 whole entry partner, species assumed): as the sequence (P24385 whole entry partner, species assumed) above
Chain of MAPK1 (ERK2) (P28482 whole entry, species assumed): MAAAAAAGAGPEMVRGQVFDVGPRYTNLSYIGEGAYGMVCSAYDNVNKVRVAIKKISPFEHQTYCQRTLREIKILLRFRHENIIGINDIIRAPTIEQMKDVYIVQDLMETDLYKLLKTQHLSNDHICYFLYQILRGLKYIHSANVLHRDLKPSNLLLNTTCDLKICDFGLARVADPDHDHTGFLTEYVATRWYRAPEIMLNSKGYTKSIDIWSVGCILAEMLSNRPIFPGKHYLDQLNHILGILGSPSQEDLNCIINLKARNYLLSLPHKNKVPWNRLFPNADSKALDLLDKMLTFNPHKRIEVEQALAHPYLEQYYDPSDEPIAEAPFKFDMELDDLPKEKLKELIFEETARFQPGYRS
Chain of PAK4 (O96013 whole entry, species assumed): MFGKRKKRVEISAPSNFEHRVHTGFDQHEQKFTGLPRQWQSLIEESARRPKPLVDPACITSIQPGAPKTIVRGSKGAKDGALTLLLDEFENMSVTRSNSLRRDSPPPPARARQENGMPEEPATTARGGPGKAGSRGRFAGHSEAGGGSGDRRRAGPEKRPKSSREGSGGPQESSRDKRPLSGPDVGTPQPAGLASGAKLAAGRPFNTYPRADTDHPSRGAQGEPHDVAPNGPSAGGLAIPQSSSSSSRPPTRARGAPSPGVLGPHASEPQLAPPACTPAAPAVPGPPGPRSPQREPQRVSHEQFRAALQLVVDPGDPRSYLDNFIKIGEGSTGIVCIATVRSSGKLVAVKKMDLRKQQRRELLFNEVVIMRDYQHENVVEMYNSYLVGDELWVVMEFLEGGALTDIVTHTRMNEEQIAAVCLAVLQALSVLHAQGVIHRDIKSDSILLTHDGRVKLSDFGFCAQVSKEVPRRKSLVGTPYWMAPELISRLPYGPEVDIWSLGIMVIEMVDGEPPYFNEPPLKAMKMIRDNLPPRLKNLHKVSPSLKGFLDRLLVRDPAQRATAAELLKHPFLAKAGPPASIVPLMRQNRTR

Compound `Cc1ccccc1C(=O)Nc1nc(NC(=O)c2ccccc2C)n(-c2ccc(OC(F)(F)F)cc2)n1` [Compound 42, N,N′-(1-(4-(trifluoromethoxy)phenyl)-1H-1,2,4-triazole-3,5-diyl)bis(2-methylbenzamide)] has an IC50 (Calu-6 (lung)) of 60 nM, an IC50 (HCT-116 (colon); Table 6A, 72 hrs, read-out: HCT-116 IC50) of 0.07 µM and an IC50 (HCT-116 (colon); Table 6C, data of FIG. 2, read-out: IC50 (μM) HCT-116 (colon)) of 0.08 µM. It also gave an EC50 (HCT-116 (colon); [3]) of 87 nM, an IC50 (HCT-116 (colon); Table 6E, read-out: Proliferation IC50 (nM) CRC HCT-116) of 0.087 µM and an IC50 (A549 (lung); Table 6A, 72 hrs, read-out: A549 IC50) of 0.03 µM. It also gave an IC50 (A549 (lung); Table 6C, data of FIG. 2, read-out: IC50 (μM) A549 (lung)) of 65 µM, an EC50 (A549 (lung); [3]) of 72 nM and an IC50 (TOV-21G (ovarian); Table 6A, 72 hrs, read-out: TOV-21G IC50) of 0.25 µM. It also gave an IC50 (TOV-21G (ovarian); Table 6C, data of FIG. 2, read-out: IC50 (μM) TOV-21G (ovarian)) of 0.15 µM, an EC50 (TOV-21G (ovarian); [3]) of 74 nM and an IC50 (TOV-21G (ovarian); Table 6E, read-out: Proliferation IC50 (nM) Ovarian TOV21G) of 0.109 µM. For the same compound, the IC50 (LS-174T (colon)) was 200 nM, the inhibition at 10 µM (CDK4/CyclinD1) was 12% and the inhibition at 10 µM (CDK6/CyclinD1) was 0%. For the same compound, the inhibition at 10 µM (PLK1) was 4%, the inhibition at 10 µM (MAPK14 (p38 alpha)) was 19% and the inhibition at 10 µM (MAPK1 (ERK2)) was 4%. The inhibition at 10 µM (CDK2/Cyclin A) was 4%, the inhibition at 10 µM (CDK4/CyclinD3) was 3% and the inhibition at 10 µM (ABL1) was 8%. It also gave an inhibition at 10 µM (PIM1) of 5%, an inhibition at 10 µM (MAPK3 (ERK1)) of 1% and an inhibition at 10 µM (PAK4) of 5%. The inhibition at 10 µM (GSK3B (GSK3 beta)) was 12%, the half-life at 1 μM [1] was 231 min and the half-life at 1 μM [2] was > 500 min.
